Test results reported in patent US7585873B2, “1-(aminoalkyl)-3-sulfonylazaindoles as 5-hydroxytryptamine-6 ligands” (Wyeth, priority 2002, dated 2009).
Where a name gives a salt, the structure may show the parent alone. Read-outs that look alike come from different tables or passages of the source.

Tests used:
[1] = target: T1, human cloned 5-HT6 receptors (Homo sapiens, UniProt P50406); test: 5-HT6 binding affinity, [3H]-LSD displacement on membranes of Hela cells expressing human cloned 5-HT6 receptors
T1 construct: expressed in transfected cells; host or cells: Hela cells
T1 sequence (P50406 whole entry): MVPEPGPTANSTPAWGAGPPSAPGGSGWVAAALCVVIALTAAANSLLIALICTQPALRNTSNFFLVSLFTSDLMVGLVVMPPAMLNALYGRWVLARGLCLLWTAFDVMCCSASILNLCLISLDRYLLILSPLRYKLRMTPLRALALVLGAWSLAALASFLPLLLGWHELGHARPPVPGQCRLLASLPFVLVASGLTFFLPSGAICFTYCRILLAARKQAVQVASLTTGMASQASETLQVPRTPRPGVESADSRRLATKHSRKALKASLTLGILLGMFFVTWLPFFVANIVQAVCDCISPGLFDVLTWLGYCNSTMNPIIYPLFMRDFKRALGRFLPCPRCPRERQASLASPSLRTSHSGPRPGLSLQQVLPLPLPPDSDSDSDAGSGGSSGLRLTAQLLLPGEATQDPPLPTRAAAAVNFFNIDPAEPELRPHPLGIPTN

[2] = [3H]-LSD 3.0 nM, Hela cell membranes, 120 min at room temperature, read-out: 5-HT6 Binding Ki

| Structure (SMILES) | melting point [°C] | Ki [1, 2] [nM] | other results |
| --- | --- | --- | --- |
| NCCn1cc(S(=O)(=O)c2ccccc2C(F)(F)F)c2cccnc21 (as salt: hydrochloride) [Example 21] | 182 to 185 |  |  |
| NCCn1cc(S(=O)(=O)c2cccc3ccccc23)c2cccnc21 [Example 16] |  | 2 |  |
| O=S(=O)(c1cccc(F)c1)c1cn(CCN2CCOCC2)c2ncccc12 [Example 30] |  | 403 |  |
| NCCn1cc(S(=O)(=O)c2ccccc2C(F)(F)F)c2cccnc21 [Example 21] |  | 2 |  |
| NCCn1cc(S(=O)(=O)c2ccc(F)cc2)c2cccnc21 [Example 11, 2-{3-[(4-Fluorophenyl)sulfonyl]-1H-pyrrolo[2,3-b]pyridin-1yl}ethylamine hydrochloride] |  |  | Ki ([1]; read-out: 5-HT6 Binding Ki): 22 nM |
| O=S(=O)(c1cccc(F)c1)c1cn(CCN2CCCC2)c2ncccc12 [Example 28] |  | 88 |  |
| CNCCn1cc(S(=O)(=O)c2cccc(Cl)c2)c2cccnc21 [Example 57, N-(2-{3-[(3-Chlorophenyl)sulfonyl]-1H-pyrrolo[2,3-b]pyridin-1-yl}ethyl)-N-methylamine Hydrochloride] |  |  | Ki ([1]; read-out: 5-HT6 Binding Ki): 0.3 nM |
| Cc1c(S(=O)(=O)c2cccc(F)c2)c2cccnc2n1CCN (as salt: hydrochloride) [Example 66] | 239 to 241 |  |  |
| Cc1c(S(=O)(=O)c2ccccc2)c2cccnc2n1CCN [Example 18] |  | 5 |  |
| CC(CN)n1cc(S(=O)(=O)c2ccccc2)c2cccnc21 (stereo not drawn) [Example 68] |  | 14 |  |
| O=S(=O)(c1cccc(F)c1)c1cn(CCN2CCCCC2)c2ncccc12 [Example 29] |  | 158 |  |
| NCCn1cc(S(=O)(=O)c2cccc(C(F)(F)F)c2)c2cccnc21 (as salt: hydrochloride) [Example 22] | 179 to 183 |  |  |
| CNCCn1cc(S(=O)(=O)c2cccc(F)c2)c2cccnc21 [Example 59] | 255 to 260 |  | Ki ([1]; read-out: 5-HT6 Binding Ki): 1 nM |
| CN(C)CCn1cc(S(=O)(=O)c2cccc3ccccc23)c2cccnc21 [Example 15] |  |  | Ki ([1]; read-out: 5-HT6 Binding Ki): 1 nM |
| COc1ccc2c(n1)c(S(=O)(=O)c1cccc3ccccc13)cn2CCN(C)C [Example 80] | 233 to 235 | 2 |  |
| Cc1c(S(=O)(=O)c2ccc3ccccc3c2)c2cccnc2n1CCN(C)C [Example 45] | 238 to 240 | 10 |  |
| COc1ccc2c(n1)c(S(=O)(=O)c1ccc(Br)cc1)cn2CCN(C)C [Example 78] | 225 to 226 | 4 |  |
| NCCn1cc(S(=O)(=O)c2cccc(C(F)(F)F)c2)c2cccnc21 [Example 22] |  | 2 |  |
| O=S(=O)(c1cccc(F)c1)c1cn(CCN2CCOCC2)c2ncccc12 (as salt: hydrochloride) [Example 30] | 127 to 129 |  |  |
| CC(CN)n1cc(S(=O)(=O)c2ccccc2)c2cccnc21 (stereo not drawn) (as salt: hydrochloride) [Example 68] | 180 to 185 |  |  |
| O=S(=O)(c1cccc(F)c1)c1cn(CCN2CCCCC2)c2ncccc12 (as salt: hydrochloride) [Example 29] | 197 to 199 |  |  |
| NCCn1cc(S(=O)(=O)c2ccc3ccccc3c2)c2cccnc21 [Example 67] |  | 24 |  |
| NCCn1cc(S(=O)(=O)c2cccc3ccccc23)c2cccnc21 (as salt: hydrochloride) [Example 16] | 148 to 170 |  |  |
| CN(C)CCn1cc(S(=O)(=O)c2ccccc2)c2cccnc21 [Example 6, N,N-Dimethyl-N-{2-[3-(phenylsulfonyl)-1H-pyrrolo[2,3-b]pyridin-1-yl]ethyl}amine dihydrochloride] |  |  | Ki ([1]; read-out: 5-HT6 Binding Ki): 23 nM |
| Cc1c(S(=O)(=O)c2cccc(F)c2)c2cccnc2n1CCN [Example 66] |  | 2 |  |
| COc1ccc2c(n1)c(S(=O)(=O)c1cccc(F)c1)cn2CCN(C)C [Example 79] | 208 to 212 | 11 |  |
| NCCn1cc(S(=O)(=O)c2cccc(Cl)c2)c2cccnc21 [Example 12, 2-{3-[(3-Chlorophenyl)sulfonyl]-1H-pyrrolo[2,3-b]pyridin-1-yl}ethylamine dihydrochloride] |  |  | Ki [1]: 20 nM |
| NCCn1cc(S(=O)(=O)c2ccc3ccccc3c2)c2cccnc21 (as salt: hydrochloride) [Example 67] | 233 to 238 |  |  |
| CN(C)CCn1cc(S(=O)(=O)c2cccc3ccccc23)c2cccnc21 (as salt: hydrochloride) [Example 15] | 203 to 206 |  |  |

More lines, main results first:

| melting point [°C] | Ki [1, 2] [nM] | Structure (SMILES) | other results |
| --- | --- | --- | --- |
|  | 6 | NCCn1cc(S(=O)(=O)c2cccc(F)c2)c2cccnc21 [Example 17] |  |
|  | 15 | CN(C)CCn1cc(S(=O)(=O)c2cccs2)c2cccnc21 [Example 25] |  |
| 173 to 175 | 9 | O=S(=O)(c1cn(CCNCc2ccccc2)c2ncccc12)c1c(Cl)nc2sccn12 [Example 61] |  |
| 136 to 140 |  | NCCn1cc(S(=O)(=O)c2cc(Cl)cc(Cl)c2)c2cccnc21 (as salt: hydrochloride) [Example 24] |  |
| 169 to 171 |  | CN(C)CCn1cc(S(=O)(=O)c2ccc(Cl)s2)c2cccnc21 (as salt: hydrochloride) [Example 33] |  |
|  | 6 | NCCn1cc(S(=O)(=O)c2ccccc2)c2cccnc21 [Example 5, 2-[3-(Phenylsulfonyl)-1H-pyrrolo[2,3-b]pyridin-1-yl]ethylamine dihydrochloride] |  |
|  | 4 | CN(C)CCn1cc(S(=O)(=O)c2cc(Cl)cc(Cl)c2)c2cccnc21 [Example 26] |  |
|  | 5 | CN(C)CCn1cc(S(=O)(=O)c2cccc(C(F)(F)F)c2)c2cccnc21 [Example 19] |  |
| 74 to 76 | 20 | CCN(CC)CCn1cc(S(=O)(=O)c2cccc(Cl)c2)c2cccnc21 [Example 35] |  |
| 182 to 184 | 41 | CN(C)CCn1cc(S(=O)(=O)c2ccccc2)c2ccc(Br)nc21 [Example 41] |  |
| 202 to 204 |  | NCCn1cc(S(=O)(=O)c2cccc(F)c2)c2cccnc21 (as salt: hydrochloride) [Example 17] |  |
| 180 to 182 |  | CN(C)CCn1cc(S(=O)(=O)c2c(Cl)nc3sccn23)c2cccnc21 (as salt: hydrochloride) [Example 34] |  |
| 182 to 186 | 1 | CNCCn1cc(S(=O)(=O)c2c(Cl)nc3sccn23)c2cccnc21 [Example 58] |  |
| 195 to 197 | 10 | Cc1cccc(S(=O)(=O)c2cn(CCN(C)C)c3ncccc23)c1 [Example 40] |  |
| 244 to 246 | 1 | CNCCn1cc(S(=O)(=O)c2cccc(C)c2)c2cccnc21 [Example 62] |  |
| 220 to 222 | 9 | CN(C)CCn1cc(S(=O)(=O)c2c(Cl)cccc2Cl)c2cccnc21 [Example 37] |  |
| 182 to 186 |  | CN(C)CCn1cc(S(=O)(=O)c2cccc(Cl)c2)c2cccnc21 (as salt: hydrochloride) [Example 14] |  |
| 230 to 232 |  | CN(C)CCn1cc(S(=O)(=O)c2cc(Cl)ccc2Cl)c2cccnc21 (as salt: hydrochloride) [Example 38] |  |
|  | 200 | CN(C)CCn1cc(S(=O)(=O)c2cccc(F)c2)c2ncccc21 [Example 77, N,N-Dimethyl-N-(2-{3-[(3-fluorophenyl)sulfonyl]-1H-pyrrolo[3,2-b]pyridin-1-yl}ethyl)amine Dihydrochloride] |  |
| 140 to 145 | 212 | O=S(=O)(c1cn(CCN(Cc2ccccc2)Cc2ccccc2)c2ncccc12)c1c(Cl)nc2sccn12 [Example 39] |  |

| melting point [°C] | Ki [1, 2] [nM] | Structure (SMILES) | other results |
| --- | --- | --- | --- |
| 196 to 198 |  | CN(C)CCn1cc(S(=O)(=O)c2ccccc2C(F)(F)F)c2cccnc21 (as salt: hydrochloride) [Example 20] |  |
|  | 12 | CN(C)CCn1cc(S(=O)(=O)c2cc(Cl)ccc2Cl)c2cccnc21 [Example 38] |  |
|  | 45 | O=S(=O)(c1cccc(Cl)c1)c1cn(CCN2CCCC2)c2ncccc12 [Example 27] |  |
|  | 11 | CN(C)CCn1cc(S(=O)(=O)c2ccccc2C(F)(F)F)c2cccnc21 [Example 20] |  |
|  | 9 | Cc1ccc(S(=O)(=O)c2cn(CCN)c3ncccc23)cc1 [Example 7, 2-{3-[(4-Methylphenyl)sulfonyl]-1H-pyrrolo[2,3-b]pyridin-1-yl}ethylamine dihydrochloride] |  |
| 148 to 150 | 63 | CN(C)CCn1cc(S(=O)(=O)c2cccc(C#N)c2)c2cccnc21 [Example 44] |  |
| 227 to 232 |  | CN(C)CCn1cc(S(=O)(=O)c2cc(Cl)cc(Cl)c2)c2cccnc21 (as salt: hydrochloride) [Example 26] |  |
|  | 4 | CN(C)CCn1cc(S(=O)(=O)c2ccc(Cl)s2)c2cccnc21 [Example 33] |  |
|  | 39 | COc1ccc2c(S(=O)(=O)c3ccccc3)cn(CCN(C)C)c2n1 [Example 42] |  |
|  | 2 | CN(C)CCn1cc(S(=O)(=O)c2c(Cl)nc3sccn23)c2cccnc21 [Example 34] |  |
|  | 50 | CN(C)CCn1cc(S(=O)(=O)c2ccc(F)cc2)c2cccnc21 [Example 13] |  |
| 212 to 215 | 102 | Cc1c(S(=O)(=O)c2cn(CCN(C)C)c3ncccc23)sc2ccc(Cl)cc12 [Example 36] |  |
|  | 2 | CN(C)CCn1cc(S(=O)(=O)c2cccc(Cl)c2)c2cccnc21 [Example 14] |  |
|  | 3 | NCCn1cc(S(=O)(=O)c2cc(Cl)cc(Cl)c2)c2cccnc21 [Example 24] |  |
|  | 9 | NCCn1cc(S(=O)(=O)c2cccs2)c2cccnc21 [Example 23] |  |
| 202 to 204 |  | NCCn1cc(S(=O)(=O)c2cccs2)c2cccnc21 (as salt: hydrochloride) [Example 23] |  |
| 189 to 192 |  | CN(C)CCn1cc(S(=O)(=O)c2ccc(F)cc2)c2cccnc21 (as salt: hydrochloride) [Example 13] |  |
| 108 to 112 |  | CN(C)CCn1cc(S(=O)(=O)c2cccc(C(F)(F)F)c2)c2cccnc21 (as salt: hydrochloride) [Example 19] |  |
|  | 3 | CCNCCn1cc(S(=O)(=O)c2cccc(Cl)c2)c2cccnc21 [Example 60] |  |
| 212 to 216 |  | CN(C)CCn1cc(S(=O)(=O)c2cccs2)c2cccnc21 (as salt: hydrochloride) [Example 25] |  |
